This is an account of results in patent publication US20030036111A1, “Mitochondrial protein” (priority 2001, published 2003).

“Also recorded” adds a separate entry of the source.

The term Ki denotes a measure of affinity in units of concentration, obtained from inhibition or displacement.

Holding throughout (assay type): biochemical
Assay [1] addresses T1, human DNC (mitochondrial deoxynucleotide carrier) (Homo sapiens, UniProt Q9HC21).
T1 construct: Amino acids are numbered from 1-320; made in house; host or cells: E. coli BL21(DE3), pET21b; inclusion bodies solubilized in sarkosyl, Ni-NTA purified
T1 sequence (Q9HC21 2-320 limits assumed): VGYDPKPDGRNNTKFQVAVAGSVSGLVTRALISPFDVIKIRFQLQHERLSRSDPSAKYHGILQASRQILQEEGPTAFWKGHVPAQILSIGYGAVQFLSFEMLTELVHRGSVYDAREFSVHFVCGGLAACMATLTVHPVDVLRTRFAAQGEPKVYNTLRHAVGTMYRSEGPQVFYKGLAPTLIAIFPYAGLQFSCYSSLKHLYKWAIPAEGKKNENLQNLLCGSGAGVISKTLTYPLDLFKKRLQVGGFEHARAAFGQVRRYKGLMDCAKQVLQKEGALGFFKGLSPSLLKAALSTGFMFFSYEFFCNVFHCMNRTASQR
The assay is described as follows: Inhibition of [α-35S]dATP uptake (dATP/ADP exchange) by external substrates and carrier inhibitors. The note with it: for Ki: read-out: Ki, competitive inhibition of [α-35 S]dATP uptake by external substrate; for Ki, competitive inhibition of [α-35 S]dATP uptake by external substrate: internal ADP or dADP 10 mM.

Assay [2] addresses T1, human DNC (mitochondrial deoxynucleotide carrier). The assay is described as follows: Dependence of DNC activity ([α-35S]dATP uptake) on internal substrate. Particulars: internal substrate 10 mM; for rate of [α-35 S]dATP uptake into proteoliposomes with internal substrate: 2 min. On the procedure:
FIG. 3. Time course of dATP/ADP exchange and substrate specificity of human DNC. (a) Time course of [α-35 S]dATP/ADP exchange in proteoliposomes reconstituted with the recombinant DNC. [α-35 S]dATP (1 mM) was added to proteoliposomes containing 10 mM ADP (⋄) or 10 mM NaCl (∇). (b) Dependence of DNC activity on internal substrate. Proteoliposomes were preloaded internally with various substrates (concentration 10 mM). Trans-port was started by addition of […] [α-35 S]dATP and stopped after 2 min. The values are means 6 SD of at least three experiments. (c) Inhibition of the rate of [α-35 S]dATP uptake by external substrates. Proteoliposomes were preloaded internally with 10 mM ADP. […] External substrates (concentration 0.5 mM) were added together with [α-35 S]dATP. The extents of inhibition (%) from a representative experiment are reported.
The recombinant protein in sarkosyl was reconstituted into liposomes in the presence of substrates (10). […] Transport was measured at 25° C. with internal and external pHs at 6.8. It was started by adding [α-35S]dATP or [^14C]-ADP and terminated after 2 min by addition of 100 mM of p-chloromercuribenzene sulfonate (10). Entrapped radioactivity was counted (10). The initial transport rate was calculated from the radioactivity taken up by proteoliposomes within 2 min (in the initial linear range). Other transport activities were assayed similarly (10).

The target is the same in assay [3]. The assay is described as follows: Inhibition of [α-35S]dATP uptake (dATP/ADP exchange) by external substrates and carrier inhibitors. Particulars: external substrates 0.5 mM; internal 10 mM ADP; 125 mM [α-35 S]dATP; 2 min. On the procedure: FIG. 3. Time course of dATP/ADP exchange and substrate specificity of human DNC. (a) Time course of [α-35 S]dATP/ADP exchange in proteoliposomes reconstituted with the recombinant DNC. [α-35 S]dATP (1 mM) was added to proteoliposomes containing 10 mM ADP (⋄) or 10 mM NaCl (∇). (b) Dependence of DNC activity on internal substrate. Proteoliposomes were preloaded internally with various substrates (concentration 10 mM). Trans-port was started by addition of […] [α-35 S]dATP and stopped after 2 min. The values are means 6 SD of at least three experiments. (c) Inhibition of the rate of [α-35 S]dATP uptake by external substrates. Proteoliposomes were preloaded internally with 10 mM ADP. Transport was started by adding […] [α-35 S]dATP and stopped after 2 min. External substrates (concentration 0.5 mM) were added together with [α-35 S]dATP. The extents of inhibition (%) from a representative experiment are reported.
The recombinant protein in sarkosyl was reconstituted into liposomes in the presence of substrates (10). Both cardiolipin (1.14 mg/ml) and EDTA (1 mM) were added. Transport was measured at 25° C. with internal and external pHs at 6.8. It was started by adding [α-35S]dATP or [^14C]-ADP and terminated after 2 min by addition of 100 mM of p-chloromercuribenzene sulfonate (10). Entrapped radioactivity was counted (10). The initial transport rate was calculated from the radioactivity taken up by proteoliposomes within 2 min (in the initial linear range). Other transport activities were assayed similarly (10).

The mark [4] stands for this setting: inhibitor 2 mM, internal 10 mM ADP, 2 min.
Setting [5] is: inhibitor 10 mM, internal 10 mM ADP, 2 min.
The mark [6] stands for this setting: inhibitor 0.1 mM, internal 10 mM ADP, 2 min.

In the case of `CCCCC(C(=O)O)C(=O)O` [butylmalonate], the “inhibition of uptake of [α-35 S]dATP” value in assay [1] (setting [4]) is on record as “No significant inhibition”. For `NC(=O)C1=CN([C@@H]2O[C@H](COP(=O)(O)OP(=O)(O)OC[C@H]3O[C@@H](n4cnc5c(N)ncnc54)[C@H](O)[C@@H]3O)[C@@H](O)[C@H]2O)C=CC1` [NADH], the “rate of [α-35 S]dATP uptake into proteoliposomes with internal substrate” value (shortened to “rate … with internal substrate”) in assay [2] is “virtually no activity”.

Regarding `c1ccc(-c2ccnc3c2ccc2c(-c4ccccc4)ccnc23)cc1` [bathophenathroline], the “inhibition of uptake of [α-35 S]dATP” value in assay [1] (setting [5]) turned out to be 41%. As to `Nc1nc2c(ncn2[C@H]2C[C@H](O)[C@@H](CO)O2)c(=O)[nH]1` [deoxyguanosine], the “rate … with internal substrate” value in assay [2] is “virtually no activity”. Further, the “effect of external substrate on [α-35 S]dATP/ADP exchange” value (from here on “effect … [α-35 S]dATP/ADP exchange”) in assay [3] is “no effect”.

Take `CCN1C(=O)C=CC1=O` [N-ethylmaleimide]: in assay [1] (setting [4]), the “inhibition of uptake of [α-35 S]dATP” value is given as “No significant inhibition”.

Take `Nc1ncnc2c1ncn2[C@@H]1O[C@H](CO)[C@@H](O)[C@H]1O` [adenosine]: in assay [2], the “rate … with internal substrate” value was “virtually no activity”. Moreover, the “effect … [α-35 S]dATP/ADP exchange” value in assay [3] is on record as “no effect”. dADP: in assay [2], the “rate … with internal substrate” value is “highest rates”. With `O=S(=O)([O-])c1cc[c]([Hg][Cl])cc1` [p-chloromercuribenzene sulfonate], the “inhibition of uptake of [α-35 S]dATP” value in assay [1] (setting [6]) is recorded as “completely”. In the case of `Nc1ncnc2c1ncn2[C@H]1CC[C@@H](COP(=O)(O)OP(=O)(O)OP(=O)(O)O)O1` [ddATP], the Ki in assay [1] amounted to 25 µM. For the compound `O=C(O)c1cccc(C(=O)O)c1C(=O)O` [1,2,3-benzenetricarboxylate], in assay [1] (setting [4]), the “dATP/ADP exchange rate reduced to (remaining rate)” value worked out at 40%.

Turning to `Nc1nc2nc[nH]c2c(=O)[nH]1` [guanine], the “rate … with internal substrate” value in assay [2] is on record as “virtually no activity”. Further, the “effect … [α-35 S]dATP/ADP exchange” value in assay [3] was “no effect”. For `NCC(=O)O` [glycine], the “rate … with internal substrate” value in assay [2] is “virtually no activity”. Consider `Cc1c[nH]c(=O)[nH]c1=O` [thymine], for which, in assay [2], the “rate … with internal substrate” value is on record as “virtually no activity”. In addition, the “effect … [α-35 S]dATP/ADP exchange” value in assay [3] was “no effect”. Consider `Cc1cn([C@H]2C[C@H](O)[C@@H](CO)O2)c(=O)[nH]c1=O` [deoxythymidine], for which, in assay [2], the “rate … with internal substrate” value is “virtually no activity”. Moreover, the “effect … [α-35 S]dATP/ADP exchange” value in assay [3] is “no effect”. For the compound `Nc1ccn([C@@H]2O[C@H](COP(=O)(O)OP(=O)(O)O)[C@@H](O)[C@H]2O)c(=O)n1` [CDP], the “rate … with internal substrate” value in assay [2] is “significant activities”. With `Nc1nc2c(ncn2[C@@H]2O[C@H](COP(=O)(O)OP(=O)(O)O)[C@@H](O)[C@H]2O)c(=O)[nH]1` [GDP], the “rate … with internal substrate” value in assay [2] is “significant activities; also recorded: rather poorly”.

With `O=C(O)CC(C(=O)O)c1ccccc1` (centres unmarked) [phenylsuccinate], the “inhibition of uptake of [α-35 S]dATP” value in assay [1] (setting [4]) was “No significant inhibition”. As for `C=C1[C@@H](C)[C@H]2[C@H](Cc3ccccc3)NC(=O)[C@]23OC(=O)/C=C/[C@H](O)CCC[C@@H](C)C/C=C/[C@H]3[C@@H]1O` [cytochalasin B], the “inhibition of uptake of [α-35 S]dATP” value in assay [1] (inhibitor 0.033 mM, internal 10 mM ADP, 2 min) is “No significant inhibition”. In the case of `Nc1cc[nH]c(=O)n1` [cytosine], the “rate … with internal substrate” value in assay [2] was “virtually no activity”. For the same compound, the “effect … [α-35 S]dATP/ADP exchange” value in assay [3] is on record as “no effect”. As for `C=C1[C@@H]2CC[C@H]3[C@]4(C)C[C@H](O[C@@H]5O[C@H](CO)[C@@H](OS(=O)(=O)O)[C@H](OS(=O)(=O)O)[C@H]5OC(=O)CC(C)C)CC(C(=O)O)(C(=O)O)[C@H]4CC[C@]3(C2)[C@H]1O` [carboxyatractyloside], the “inhibition of uptake of [α-35 S]dATP” value in assay [1] (setting [6]) turned out to be 42%. With `O=C(O)CC(O)(CC(=O)O)C(=O)O` [citrate], in assay [2], the “rate … with internal substrate” value was “virtually no activity”. On to `O=c1ccn([C@@H]2O[C@H](CO)[C@@H](O)[C@H]2O)c(=O)[nH]1` [uridine], for which, in assay [2], the “rate … with internal substrate” value is recorded as “virtually no activity”. In addition, the “effect … [α-35 S]dATP/ADP exchange” value in assay [3] is on record as “no effect”. On to phosphate, for which the “rate … with internal substrate” value in assay [2] was “virtually no activity”. Regarding `Cc1ncc(COP(=O)(O)O)c(C=O)c1O` [pyridoxal 5′-phosphate], in assay [1] (setting [5]), the “inhibition of uptake of [α-35 S]dATP” value is on record as “completely”. With `O=c1ccn([C@H]2C[C@H](O)[C@@H](CO)O2)c(=O)[nH]1` [deoxyuridine], the “rate … with internal substrate” value in assay [2] is given as “virtually no activity”. The “effect … [α-35 S]dATP/ADP exchange” value in assay [3] is “no effect”. Regarding `Nc1ncnc2c1ncn2[C@@H]1O[C@H](COP(=O)(O)OP(=O)(O)OP(=O)(O)O)[C@@H](O)[C@H]1O` [ATP], the “rate … with internal substrate” value in assay [2] is listed as “lower rate”. Consider `Nc1ccn([C@H]2CC[C@@H](COP(=O)(O)OP(=O)(O)OP(=O)(O)O)O2)c(=O)n1` [ddCTP], for which, in assay [1], the Ki came to 70 µM. For `Nc1ncnc2nc[nH]c12` [adenine], the “rate … with internal substrate” value in assay [2] is “virtually no activity”. In addition, in assay [3], the “effect … [α-35 S]dATP/ADP exchange” value is reported as “no effect”. In the same order, the values of `Nc1ccn([C@@H]2O[C@H](CO)[C@@H](O)[C@H]2O)c(=O)n1` [cytidine] are “virtually no activity” and “no effect”. Consider `O=c1ccn([C@@H]2O[C@H](COP(=O)(O)OP(=O)(O)O)[C@@H](O)[C@H]2O)c(=O)[nH]1` [UDP], for which the “rate … with internal substrate” value in assay [2] is on record as “significant activities”. On to `O=c1cc[nH]c(=O)[nH]1` [uracil], for which the “rate … with internal substrate” value in assay [2] is “virtually no activity”. For the same compound, the “effect … [α-35 S]dATP/ADP exchange” value in assay [3] was “no effect”.

As for `O=P(O)(O)OP(=O)(O)O` [pyrophosphate], in assay [2], the “rate … with internal substrate” value is on record as “much lower activities”. Moreover, in assay [2] ([α-35 S]dATP uptake), the “exchange relative to ADP exchange” value stood at 22%. As for `Nc1ccn([C@H]2C[C@H](O)[C@@H](CO)O2)c(=O)n1` [deoxycytidine], in assay [2], the “rate … with internal substrate” value is “virtually no activity”. The “effect … [α-35 S]dATP/ADP exchange” value in assay [3] is listed as “no effect”. For the compound `O=c1ccn([C@H]2C[C@H](O)[C@@H](COP(=O)(O)OP(=O)(O)O)O2)c(=O)[nH]1` [dUDP], in assay [1], the “Ki, competitive inhibition of [α-35 S]dATP uptake by external substrate” value is “higher”. Take `CO[C@H](C/C=C\C=C\CC/C=C/C[C@H](C)/C=C/C(=C\C(=O)O)CC(=O)O)/C(C)=C\C=C(/C)C(=O)O` [bongkrekate]: the “inhibition of uptake of [α-35 S]dATP” value in assay [1] (inhibitor 0.01 mM, internal 10 mM ADP, 2 min) is 37%. With `N#CC(=Cc1ccc(O)cc1)C(=O)O` [a-cyano-4-hydroxycinnamate], in assay [1] (setting [4]), the “inhibition of uptake of [α-35 S]dATP” value was “No significant inhibition”. `O=c1ccn([C@H]2C[C@H](O)[C@@H](COP(=O)(O)OP(=O)(O)OP(=O)(O)O)O2)c(=O)[nH]1` [dUTP]: in assay [1], the “Ki, competitive inhibition of [α-35 S]dATP uptake by external substrate” value is on record as “higher”.
